Patent publication US4684664A, “Derivatives of β-(4-isocyano-1,2,3,4-diepoxycyclopentyl) acrylic acid” (Kureha Kagaku Kogyo Kabushiki Kaisha, priority 1984, dated 1987)
≈ marks a conversion by molar mass, not a printed value.

Legend:
Type in all cases: cell-based
[1] = system: Staphylococcus aureus FDA 209PJc-1; assay: Antibacterial activity, agar-dilution MIC, organism No. 1; conditions: Staphylococcus aureus, FDA209PJC1; Organism No. 1, bouillon-agar; read-out: Minimum Inhibitory Concentration
Source text: (§1) Agar-dilution method was used for determination of the antibacterial activity and antifungal activity while using bouillon-agar culture medium, and the minimum inhibitory concentration of the specimen was expressed by μg/ml of the culture medium.

[2] = system: Staphylococcus aureus Terajima; assay: Antibacterial activity, agar-dilution MIC, organism No. 2; conditions: Staphylococcus aureus; Organism No. 2, bouillon-agar; read-out: Minimum Inhibitory Concentration
Source text: as §1

[3] = system: Staphylococcus aureus MS 353; assay: Antibacterial activity, agar-dilution MIC, organism No. 3; conditions: Staphylococcus aureus, MS353; Organism No. 3, bouillon-agar; read-out: Minimum Inhibitory Concentration
Source text: as §1

[4] = system: Streptococcus pyogenes Cook; assay: Antibacterial activity, agar-dilution MIC, organism No. 4; conditions: Streptococcus pyogenes; Organism No. 4, bouillon-agar; read-out: Minimum Inhibitory Concentration
Source text: as §1

[5] = system: Escherichia coli NIHJ-JC-2; assay: Antibacterial activity, agar-dilution MIC, organism No. 5; conditions: Escherichia coli, NIHJJC2; Organism No. 5, bouillon-agar; read-out: Minimum Inhibitory Concentration
Source text: as §1

[6] = system: Escherichia coli K12 C600 IAM 1264; assay: Antibacterial activity, agar-dilution MIC, organism No. 6; conditions: Escherichia coli, IAM1264; Organism No. 6, bouillon-agar; read-out: Minimum Inhibitory Concentration
Source text: as §1

[7] = system: Klebsiella pneumoniae PCI-602; assay: Antibacterial activity, agar-dilution MIC, organism No. 7; conditions: Klebsiella pneumoniae, PCI602; Organism No. 7, bouillon-agar; read-out: Minimum Inhibitory Concentration
Source text: as §1

[8] = system: Salmonella typhimurium IID 971; assay: Antibacterial activity, agar-dilution MIC, organism No. 8; conditions: Salmonella enterica; Organism No. 8, bouillon-agar; read-out: Minimum Inhibitory Concentration
Source text: as §1

Salmonella typhi 901 = assay: Antibacterial activity, agar-dilution MIC, organism No. 9; conditions: Salmonella enterica, TYPHI, read-out: Minimum Inhibitory Concentration
Source text: as §1

[9] = system: Salmonella paratyphi-A 1015; assay: Antibacterial activity, agar-dilution MIC, organism No. 10; conditions: Salmonella enterica, PARATYPHI, read-out: Minimum Inhibitory Concentration
Source text: as §1

[10] = system: Salmonella shottmuelleri 8006; assay: Antibacterial activity, agar-dilution MIC, organism No. 11; conditions: Salmonella, 8006; Organism No. 11, bouillon-agar; read-out: Minimum Inhibitory Concentration
Source text: as §1

[11] = system: Salmonella enteritidis G 14; assay: Antibacterial activity, agar-dilution MIC, organism No. 12; conditions: Salmonella enterica, ENTERITIDIS; Organism No. 12, bouillon-agar; read-out: Minimum Inhibitory Concentration
Source text: as §1

[12] = system: Bacillus subtilis ATCC 6633; assay: Antibacterial activity, agar-dilution MIC, organism No. 14; conditions: Bacillus subtilis, ATCC6633; Organism No. 14, bouillon-agar; read-out: Minimum Inhibitory Concentration
Source text: as §1

[13] = system: Pseudomonas aeruginosa IFO 3445; assay: Antibacterial activity, agar-dilution MIC, organism No. 15; conditions: Pseudomonas aeruginosa, IFO3445; Organism No. 15, bouillon-agar; read-out: Minimum Inhibitory Concentration
Source text: as §1

[14] = system: Pseudomonas aeruginosa NCTC 10490; assay: Antibacterial activity, agar-dilution MIC, organism No. 16; conditions: Pseudomonas aeruginosa, NCTC10490; Organism No. 16, bouillon-agar; read-out: Minimum Inhibitory Concentration
Source text: as §1

[15] = system: Pseudomonas aeruginosa PAO 1; assay: Antibacterial activity, agar-dilution MIC, organism No. 17; conditions: Pseudomonas aeruginosa, PAO1; Organism No. 17, bouillon-agar; read-out: Minimum Inhibitory Concentration
Source text: as §1

[16] = system: Proteus morganii IFO 3848; assay: Antibacterial activity, agar-dilution MIC, organism No. 18; conditions: Morganella morganii, IFO3848; Organism No. 18, bouillon-agar; read-out: Minimum Inhibitory Concentration
Source text: as §1

[17] = system: Proteus mirabilis IFO 3849; assay: Antibacterial activity, agar-dilution MIC, organism No. 19; conditions: Proteus mirabilis, IFO3849; Organism No. 19, bouillon-agar; read-out: Minimum Inhibitory Concentration
Source text: as §1

Proteus vulgaris OX-19 = assay: Antibacterial activity, agar-dilution MIC, organism No. 20; conditions: Proteus vulgaris, OX19; Organism No. 20, bouillon-agar; read-out: Minimum Inhibitory Concentration
Source text: as §1

Proteus vulgaris HX-19 = assay: Antibacterial activity, agar-dilution MIC, organism No. 21; conditions: Proteus vulgaris, HX19; Organism No. 21, bouillon-agar; read-out: Minimum Inhibitory Concentration
Source text: as §1

[18] = system: Proteus rettgeri IFO 3850; assay: Antibacterial activity, agar-dilution MIC, organism No. 22; conditions: Providencia rettgeri, IFO3850; Organism No. 22, bouillon-agar; read-out: Minimum Inhibitory Concentration
Source text: as §1

[19] = system: Enterobacter aerogenes ATCC 13048; assay: Antibacterial activity, agar-dilution MIC, organism No. 23; conditions: Klebsiella aerogenes, ATCC13048; Organism No. 23, bouillon-agar; read-out: Minimum Inhibitory Concentration
Source text: as §1

Enterobacter cloacae 963 = assay: Antibacterial activity, agar-dilution MIC, organism No. 24; conditions: Enterobacter cloacae, 963; Organism No. 24, bouillon-agar; read-out: Minimum Inhibitory Concentration
Source text: as §1

[20] = system: Micrococcus luteus ATCC 9341; assay: Antibacterial activity, agar-dilution MIC, organism No. 25; conditions: Micrococcus luteus, ATCC9341; Organism No. 25, bouillon-agar; read-out: Minimum Inhibitory Concentration
Source text: as §1

[21] = system: Streptococcus pyogenes IFO 3340; assay: Antibacterial activity, agar-dilution MIC, organism No. 26; conditions: Streptococcus pyogenes, IFO3340; Organism No. 26, bouillon-agar; read-out: Minimum Inhibitory Concentration
Source text: as §1

[22] = system: Mycoplasma pneumoniae IID817; assay: Antimycoplasmal activity, MIC by phenol red colour change, organism No. 28; conditions: Mycoplasma, IID817; Organism No. 28, PPLO broth + 1% glucose, 37° C.; read-out: Minimum Inhibitory Concentration (MIC)
Method: Mycoplasma pneumoniae IID817 was used as the test microorganism in a culture medium prepared by adding 1% of glucose to "PPLO broth (manufactured by Difco Co.) liquid culture medium" at 37° C. with phenol red as an indicator, thereby culturing the test microorganism.

[23] = system: Candida albicans IAM 4905; assay: Antifungal activity, agar-dilution MIC, organism No. 29; conditions: Candida albicans, IAM4905; Organism No. 29, bouillon-agar; read-out: Minimum Inhibitory Concentration
Source text: as §1

[24] = system: Aspergillus niger IFO 6342; assay: Antifungal activity, agar-dilution MIC, organism No. 30; conditions: Aspergillus niger, IFO6342; Organism No. 30, bouillon-agar; read-out: Minimum Inhibitory Concentration
Source text: as §1

[25] = system: Streptococcus faecium IFO 3826; assay: Antibacterial activity, agar-dilution MIC, organism No. 27; conditions: Enterococcus faecium, IFO3826; Organism No. 27, bouillon-agar; read-out: Minimum Inhibitory Concentration
Source text: as §1

| Structure (SMILES) | MIC [1] [µg/mL] | MIC [2] [µg/mL] | MIC [3] [µg/mL] | MIC [4] [µg/mL] | MIC [5] [µg/mL] | MIC [6] [µg/mL] | MIC [7] [µg/mL] | MIC [8] [µg/mL] | MIC (Salmonella typhi 901) [µg/mL] | MIC [9] [µg/mL] | MIC [10] [µg/mL] | MIC [11] [µg/mL] | MIC [12] [µg/mL] | MIC [13] [µg/mL] | MIC [14] [µg/mL] | MIC [15] [µg/mL] | MIC [16] [µg/mL] | MIC [17] [µg/mL] | MIC (Proteus vulgaris OX-19) [µg/mL] | MIC (Proteus vulgaris HX-19) [µg/mL] | further results |
| --- | --- | --- | --- | --- | --- | --- | --- | --- | --- | --- | --- | --- | --- | --- | --- | --- | --- | --- | --- | --- | --- |
| [C-]#[N+]C12CC3(/C=C/C(=O)Nc4ccccc4)OC3C1O2 (stereo not shown) [Compound No. 36] | 0.39 (≈ 1.45 µM) | 0.78 (≈ 2.91 µM) | 0.39 (≈ 1.45 µM) | 1.56 (≈ 5.81 µM) | 12.5 (≈ 46.6 µM) | 6.25 (≈ 23.3 µM) | 0.39 (≈ 1.45 µM) | 12.5 (≈ 46.6 µM) | 3.13 (≈ 11.7 µM) | 0.39 (≈ 1.45 µM) | < 0.05 | 0.78 (≈ 2.91 µM) | 12.5 (≈ 46.6 µM) | > 200 | > 200 | > 200 | 0.39 (≈ 1.45 µM) | 12.5 (≈ 46.6 µM) | 0.78 (≈ 2.91 µM) | < 0.05 | MIC [18]: 3.13 µg/mL (≈ 11.7 µM); MIC [19]: > 200 µg/mL; MIC (Enterobacter cloacae 963): 200 µg/mL (≈ 746 µM); MIC [20]: < 0.05 µg/mL; MIC [21]: 0.2 µg/mL (≈ 0.746 µM); MIC [22]: < 0.2 µg/mL; MIC [23]: 0.39 µg/mL (≈ 1.45 µM); MIC [24]: 1.56 µg/mL (≈ 5.81 µM) |
| [C-]#[N+]C12CC3(/C=C/C(=O)N4CCN(C)CC4)OC3C1O2 (stereo not shown) [compound 23] | 200 (≈ 726 µM) | > 200 | 200 (≈ 726 µM) | 50 (≈ 182 µM) | 50 (≈ 182 µM) | 50 (≈ 182 µM) | 200 (≈ 726 µM) | 50 (≈ 182 µM) | 12.5 (≈ 45.4 µM) | 25 (≈ 90.8 µM) | 50 (≈ 182 µM) | 25 (≈ 90.8 µM) | 200 (≈ 726 µM) | > 200 | > 200 | > 200 | 12.5 (≈ 45.4 µM) | > 200 | 25 (≈ 90.8 µM) | 25 (≈ 90.8 µM) | MIC [18]: > 200 µg/mL; MIC [19]: > 200 µg/mL; MIC (Enterobacter cloacae 963): 200 µg/mL (≈ 726 µM); MIC [20]: < 0.05 µg/mL; MIC [21]: 50 µg/mL (≈ 182 µM); MIC [25]: 100 µg/mL (≈ 363 µM); MIC [23]: 1.56 µg/mL (≈ 5.67 µM); MIC [24]: 3.13 µg/mL (≈ 11.4 µM) |
| [C-]#[N+]C12CC3(/C=C/C(=O)N4CCC[C@H]4C(=O)OCc4ccccc4)OC3C1O2 (stereo partly shown) [compound 32] | 200 (≈ 526 µM) | 200 (≈ 526 µM) | 200 (≈ 526 µM) | > 200 | > 200 | > 200 | > 200 | > 200 | > 200 | > 200 | > 200 | > 200 | > 200 | > 200 | > 200 | > 200 | > 200 | > 200 | > 200 | > 200 | MIC [18]: > 200 µg/mL; MIC (Enterobacter cloacae 963): > 200 µg/mL; MIC [20]: 1.56 µg/mL (≈ 4.1 µM); MIC [21]: 200 µg/mL (≈ 526 µM); MIC [25]: 200 µg/mL (≈ 526 µM); MIC [22]: > 100 µg/mL; MIC [23]: > 100 µg/mL; MIC [24]: > 100 µg/mL |
| [C-]#[N+]C12CC3(/C=C/C(=O)NC4C(=O)N5C(C(=O)OCC(=O)c6ccc(Br)cc6)=C(C)CSC45)OC3C1O2 (stereo not shown) [compound 34] | > 100 | > 100 | > 100 | > 100 | > 100 | > 100 | > 100 | > 100 | > 100 | > 100 | > 100 | > 100 | > 100 | > 100 | > 100 | > 100 | > 100 | > 100 | > 100 | 100 (≈ 171 µM) | MIC [18]: > 100 µg/mL; MIC [19]: > 100 µg/mL; MIC (Enterobacter cloacae 963): > 100 µg/mL; MIC [21]: > 100 µg/mL; MIC [25]: > 100 µg/mL; MIC [22]: > 100 µg/mL; MIC [23]: > 100 µg/mL; MIC [24]: > 100 µg/mL |
